We go through 18 compounds from ChEMBL document CHEMBL3351656, “Discovery of novel 2-[2-(3-hydroxy-pyridin-2-yl)-thiazol-4-yl]-acetamide derivatives as HIF prolyl 4-hydroxylase inhibitors; SAR, synthesis and modeling evaluation” (Bioorg Med Chem Lett, 2014).

Converted amounts (≈) assume the structure as drawn. Some results are limits rather than exact numbers.

The nature of the data set: Solubility of the compound at pH 7.4. The class given is physicochemical. The conditions noted are these: buffer.
In general, solubility refers to the dissolved amount per volume that the medium holds. A low value points to little dissolved substance. In the case of `N#Cc1cnc(-c2nc(CC(=O)N[C@H](C(=O)O)c3ccccc3)cs2)c(O)c1`, the solubility is over 195 µg/mL. With `N#Cc1cnc(-c2nc(CC(=O)N[C@H](CO)c3ccccc3)cs2)c(O)c1` the figure was over 188 µg/mL; with `N#Cc1cnc(-c2nc(CC(=O)NCCc3ccccc3)cs2)c(O)c1`, 13.6 µg/mL (≈ 37.3 µM); with `N#Cc1cnc(-c2nc(CC(=O)NCCc3ccccn3)c(-c3ccccc3)s2)c(O)c1`, 117 µg/mL (≈ 265 µM).

The compound `N#Cc1cnc(-c2nc(CC(=O)NCc3ccccc3)cs2)c(O)c1` came in with a solubility of 24.1 µg/mL (≈ 68.8 µM). With `N#Cc1cnc(-c2nc(CC(=O)N3CCCC3)cs2)c(O)c1` the figure was 108 µg/mL (≈ 342 µM); with `N#Cc1cnc(-c2nc(CC(=O)NCC(=O)O)cs2)c(O)c1`, 106 µg/mL (≈ 332 µM); with `N#Cc1cnc(-c2nc(CC(=O)N[C@@H](CO)c3ccccc3)cs2)c(O)c1`, over 188 µg/mL. With `Cc1c(C#N)cnc(-c2nc(CC(=O)NCCc3ccccn3)cs2)c1O` the figure was 11.2 µg/mL (≈ 29.5 µM); with `Cc1sc(-c2ncc(C#N)cc2O)nc1CC(=O)NCCc1ccccn1`, 78.4 µg/mL (≈ 207 µM).

Compound `CCN(CC)CCNC(=O)Cc1csc(-c2ncc(C#N)c(C)c2O)n1` returned a solubility of over 185 µg/mL. With `Cc1sc(-c2ncc(C#N)c(C)c2O)nc1CC(=O)NCCc1ccccn1` the figure was 6.4 µg/mL (≈ 16.3 µM). The value for `CCN(CC)CCNC(=O)Cc1nc(-c2ncc(C#N)c(C)c2O)sc1C` was 85.9 µg/mL (≈ 222 µM); that for `Cc1c(C#N)cnc(-c2nc(CC(=O)NCCc3ccccn3)c(-c3ccccc3)s2)c1O` was 0.74 µg/mL (≈ 1.62 µM). The compound `CC(C)(NC(=O)Cc1csc(-c2ncc(C#N)cc2O)n1)C(=O)O` returned a solubility of 28.9 µg/mL (≈ 83.4 µM). In the case of `CCNC(=O)Cc1nc(-c2ncc(C#N)c(C)c2O)sc1C`, the concentration in solution (solubility) came to 13.9 µg/mL (≈ 43.9 µM). The value for `N#Cc1cnc(-c2nc(CC(=O)NCCc3ccccn3)cs2)c(O)c1` was over 181 µg/mL; that for `N#Cc1cnc(-c2nc(CC(=O)N[C@@H](C(=O)O)c3ccccc3)cs2)c(O)c1` was over 195 µg/mL.
